Experimental data taken from ChEMBL document CHEMBL3885881, “DrugMatrix”.

Organism: Rattus norvegicus
Test: DrugMatrix - Regimen: Daily Repeat
Format: toxicity, organism-based, Sprague-Dawley
Set-up: regimen Daily Repeat, gender Male, age 6-8 weeks
Conditions: in vivo, po, route oral GAVAGE, […]; for ABSOLUTE BASOPHIL / ABSOLUTE EOSINOPHIL / ABSOLUTE LYMPHOCYTE / ABSOLUTE MONOCYTE / ABSOLUTE SEGMENTED NEUTROPHIL / BASOPHIL / EOSINOPHIL / ERYTHROCYTE COUNT / HEMATOCRIT / HEMOGLOBIN / LEUKOCYTE COUNT / LYMPHOCYTE / MEAN CORPUSCULAR HEMOGLOBIN / MEAN CORPUSCULAR HEMOGLOBIN CONCENTRATION / MEAN CORPUSCULAR VOLUME / MONOCYTE / NEUTROPHIL / NUCLEATED RED BLOOD CELLS / PLATELET COUNT: tissue Blood; for ALANINE AMINOTRANSFERASE / ALBUMIN / ALKALINE PHOSPHATASE / ASPARTATE AMINOTRANSFERASE / BLOOD UREA NITROGEN / CARBON DIOXIDE / CHLORIDE / CHOLESTEROL / CREATINE PHOSPHOKINASE / CREATININE / GLUCOSE / LACTATE DEHYDROGENASE / LIPASE / PHOSPHORUS / POTASSIUM / SODIUM / TOTAL BILIRUBIN / TOTAL PROTEIN / URIC ACID: tissue Plasma
[1] = 0 mg/kg, 72 h, dose level Control, time 3 day
[2] = 0 mg/kg, 120 h, dose level Control, time 5 day
[3] = 25 mg/kg, 72 h, dose level Low, time 3 day

CC(C)(C)NC(=O)[C@H]1CC[C@H]2[C@@H]3CC[C@H]4NC(=O)C=C[C@]4(C)[C@H]3CC[C@]12C [FINASTERIDE]
ABSOLUTE BASOPHIL [1]: 0 CELLS/uL | ABSOLUTE EOSINOPHIL [1]: 52.33 CELLS/uL | ABSOLUTE LYMPHOCYTE [1]: 9105.33 CELLS/uL | ABSOLUTE MONOCYTE [1]: 155.67 CELLS/uL | ABSOLUTE SEGMENTED NEUTROPHIL [1]: 1020 CELLS/uL | BASOPHIL [1]: 0% | EOSINOPHIL [1]: 0.33% | ERYTHROCYTE COUNT [1]: 5.03 x10E6/uL | HEMATOCRIT [1]: 31.63% | HEMOGLOBIN [1]: 12.37 G/DL | LEUKOCYTE COUNT [1]: 10.33 x10E3/uL | LYMPHOCYTE [1]: 87% | MEAN CORPUSCULAR HEMOGLOBIN [1]: 24.57 pg | MEAN CORPUSCULAR HEMOGLOBIN CONCENTRATION [1]: 39.07 G/DL | MEAN CORPUSCULAR VOLUME [1]: 62.93 fL | MONOCYTE [1]: 1.33% | NEUTROPHIL [1]: 11.33% | NUCLEATED RED BLOOD CELLS [1]: 0 /100WBC | PLATELET COUNT [1]: 896 x10E3/uL | ALANINE AMINOTRANSFERASE [1]: 75.33 u/L | ALBUMIN [1]: 3.77 G/DL | ALKALINE PHOSPHATASE [1]: 378.67 u/L | ASPARTATE AMINOTRANSFERASE [1]: 101.33 u/L | BLOOD UREA NITROGEN [1]: 11.33 mg/dL | CARBON DIOXIDE [1]: 25 mmol/L | CHLORIDE [1]: 99 MEQ/L | CHOLESTEROL [1]: 66 mg/dL | CREATINE PHOSPHOKINASE [1]: 277 u/L | CREATININE [1]: 0.33 mg/dL | GLUCOSE [1]: 198.33 mg/dL | LACTATE DEHYDROGENASE [1]: 140.33 u/L | LIPASE [1]: 11.33 u/L | PHOSPHORUS [1]: 11.83 mg/dL | POTASSIUM [1]: 5.37 MEQ/L | SODIUM [1]: 141.03 MEQ/L | TOTAL BILIRUBIN [1]: 0.2 mg/dL | TOTAL PROTEIN [1]: 5.47 G/DL | URIC ACID [1]: 0.93 mg/dL | ABSOLUTE BASOPHIL [2]: 0 CELLS/uL | ABSOLUTE EOSINOPHIL [2]: 0 CELLS/uL | ABSOLUTE LYMPHOCYTE [2]: 8734 CELLS/uL | ABSOLUTE MONOCYTE [2]: 98.67 CELLS/uL | ABSOLUTE SEGMENTED NEUTROPHIL [2]: 1034 CELLS/uL | BASOPHIL [2]: 0% | EOSINOPHIL [2]: 0% | ERYTHROCYTE COUNT [2]: 5.19 x10E6/uL | HEMATOCRIT [2]: 33.2% | HEMOGLOBIN [2]: 12.93 G/DL | LEUKOCYTE COUNT [2]: 9.87 x10E3/uL | LYMPHOCYTE [2]: 87% | MEAN CORPUSCULAR HEMOGLOBIN [2]: 25 pg | MEAN CORPUSCULAR HEMOGLOBIN CONCENTRATION [2]: 39.03 G/DL | MEAN CORPUSCULAR VOLUME [2]: 63.93 fL | MONOCYTE [2]: 1% | NEUTROPHIL [2]: 12% | NUCLEATED RED BLOOD CELLS [2]: 0 /100WBC | PLATELET COUNT [2]: 1190 x10E3/uL | ALANINE AMINOTRANSFERASE [2]: 75.67 u/L | ALBUMIN [2]: 4 G/DL | ALKALINE PHOSPHATASE [2]: 384.33 u/L | ASPARTATE AMINOTRANSFERASE [2]: 89.67 u/L | BLOOD UREA NITROGEN [2]: 13 mg/dL | CARBON DIOXIDE [2]: 32.67 mmol/L | CHLORIDE [2]: 103 MEQ/L | CHOLESTEROL [2]: 79.67 mg/dL | CREATINE PHOSPHOKINASE [2]: 199.33 u/L | CREATININE [2]: 0.29 mg/dL | GLUCOSE [2]: 161.33 mg/dL | LACTATE DEHYDROGENASE [2]: 92.33 u/L | LIPASE [2]: 11.67 u/L | PHOSPHORUS [2]: 10.8 mg/dL | POTASSIUM [2]: 5.38 MEQ/L | SODIUM [2]: 145.3 MEQ/L | TOTAL BILIRUBIN [2]: 0.17 mg/dL | TOTAL PROTEIN [2]: 5.7 G/DL | URIC ACID [2]: 0.63 mg/dL | ABSOLUTE BASOPHIL [3]: 0 CELLS/uL | ABSOLUTE EOSINOPHIL [3]: 0 CELLS/uL | ABSOLUTE LYMPHOCYTE [3]: 6334 CELLS/uL | ABSOLUTE MONOCYTE [3]: 74.67 CELLS/uL | ABSOLUTE SEGMENTED NEUTROPHIL [3]: 624.67 CELLS/uL | BASOPHIL [3]: 0% | EOSINOPHIL [3]: 0% | ERYTHROCYTE COUNT [3]: 5.31 x10E6/uL | HEMATOCRIT [3]: 33.17% | HEMOGLOBIN [3]: 12.87 G/DL | LEUKOCYTE COUNT [3]: 7.03 x10E3/uL | LYMPHOCYTE [3]: 89.67% | MEAN CORPUSCULAR HEMOGLOBIN [3]: 24.23 pg | MEAN CORPUSCULAR HEMOGLOBIN CONCENTRATION [3]: 38.8 G/DL | MEAN CORPUSCULAR VOLUME [3]: 62.43 fL | MONOCYTE [3]: 1% | NEUTROPHIL [3]: 9.33% | NUCLEATED RED BLOOD CELLS [3]: 0 /100WBC | PLATELET COUNT [3]: 1308 x10E3/uL | ALANINE AMINOTRANSFERASE [3]: 57.33 u/L | ALBUMIN [3]: 3.9 G/DL | ALKALINE PHOSPHATASE [3]: 360 u/L | ASPARTATE AMINOTRANSFERASE [3]: 80.67 u/L | BLOOD UREA NITROGEN [3]: 11 mg/dL | CARBON DIOXIDE [3]: 26.33 mmol/L | CHLORIDE [3]: 101.33 MEQ/L | CHOLESTEROL [3]: 77 mg/dL | CREATINE PHOSPHOKINASE [3]: 434.67 u/L | CREATININE [3]: 0.12 mg/dL | GLUCOSE [3]: 184.33 mg/dL | LACTATE DEHYDROGENASE [3]: 112 u/L | LIPASE [3]: 10.67 u/L | PHOSPHORUS [3]: 12.1 mg/dL | POTASSIUM [3]: 4.86 MEQ/L | SODIUM [3]: 144.9 MEQ/L | TOTAL BILIRUBIN [3]: 0.2 mg/dL | TOTAL PROTEIN [3]: 5.83 G/DL | URIC ACID [3]: 0.87 mg/dL
